Entries after “also recorded” stand apart in the source; their conditions may differ.
Legend:
[1] = Multiple-dose lonafarnib PK (100 mg twice daily) in loperamide study; assay type: in vivo, human
[2] = Food-effect evaluation of single-dose LNF; assay type: in vivo, human
Text: To evaluate the effect of a high-fat/high-calorie standard breakfast on the single-dose PK of LNF relative to a fasted state in healthy subjects (Group 2).
To evaluate the effect of a low-fat/low-calorie breakfast on the single-dose PK of LNF relative to a fasted state in healthy subjects (Group 2).
The effect of food (high-fat/high-calorie standard breakfast and low-fat/low-calorie breakfast) on the single-dose PK of LNF relative to the single-dose PK of LNF when administered under fasted conditions was evaluated.
• Period 1: Oral dose of LNF (75-mg capsule×1) on Day 1 (AM) under fed conditions (high-fat/high-calorie breakfast) • Period 2: Oral dose of LNF (75-mg capsule×1) on Day 4 (AM) under fed conditions (low-fat/low-calorie breakfast) • Period 3: Oral dose of LNF (75-mg capsule×1) on Day 7 (AM) under fasted conditions

[3] = test system: CYP3A; test: Co-administration of lonafarnib with ketoconazole, a strong CYP3A inhibitor; assay type: in vivo, human; settings: co-administered with ketoconazole 200 mg twice daily
[4] = Renal clearance and renal impairment study of lonafarnib; assay type: in vivo, human
Text: Lonafarnib is renally cleared <1% and no meaningful differences would be expected in subjects with renal impairment. […] Thus, lonafarnib is […].

[5] = test system: CYP3A; test: In vitro and in vivo CYP inhibition studies (CYP3A)
Text: The following medicines are contraindicated when used with lonafarnib and unless otherwise noted, the contraindication is based on the potential for lonafarnib to inhibit metabolism of the co-administered medicinal product, resulting in increased exposure to the co-administered medicinal product and risk of clinically significant adverse effects.
(§1) Concomitant administration of lonafarnib with sensitive CYP3A or CYP2C19 substrates and strong or moderate CYP3A4 inhibitors or inducers, including herbal supplements can increase exposure of the co-administered medicinal product or lonafarnib resulting in risk of clinically significant adverse events or decrease exposure of lonafarnib, which may impact efficacy. Medicinal products that are sensitive CYP3A or CYP2C19 substrates, strong or moderate CYP3A inhibitors, or strong or moderate CYP3A inducers should be discontinued. If treatment cannot safety be discontinued or an alternative drug is not available, lonafarnib should be stopped during the course of treatment unless the benefit outweighs the possible risks.

[6] = molecular target: T1, CYP2C19 (Homo sapiens, UniProt P33261); test: In vitro and in vivo CYP inhibition studies (CYP2C19)
T1 sequence (P33261 whole entry): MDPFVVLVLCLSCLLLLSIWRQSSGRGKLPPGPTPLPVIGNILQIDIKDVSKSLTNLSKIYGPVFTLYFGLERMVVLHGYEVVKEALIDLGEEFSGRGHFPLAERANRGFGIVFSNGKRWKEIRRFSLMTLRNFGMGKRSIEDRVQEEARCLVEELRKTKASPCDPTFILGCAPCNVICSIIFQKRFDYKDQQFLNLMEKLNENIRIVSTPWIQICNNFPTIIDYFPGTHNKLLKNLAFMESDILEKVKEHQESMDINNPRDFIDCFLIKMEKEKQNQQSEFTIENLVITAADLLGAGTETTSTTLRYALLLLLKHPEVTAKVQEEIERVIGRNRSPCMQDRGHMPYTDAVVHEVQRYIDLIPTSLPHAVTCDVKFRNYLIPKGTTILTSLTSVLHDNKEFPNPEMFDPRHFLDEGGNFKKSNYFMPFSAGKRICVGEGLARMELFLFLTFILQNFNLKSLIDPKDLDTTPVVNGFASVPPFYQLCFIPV
Text: as §1

[7] = molecular target: CYP3A4 (Homo sapiens, UniProt P08684); test: Metabolism of lonafarnib
Chain of CYP3A4 (P08684 whole entry): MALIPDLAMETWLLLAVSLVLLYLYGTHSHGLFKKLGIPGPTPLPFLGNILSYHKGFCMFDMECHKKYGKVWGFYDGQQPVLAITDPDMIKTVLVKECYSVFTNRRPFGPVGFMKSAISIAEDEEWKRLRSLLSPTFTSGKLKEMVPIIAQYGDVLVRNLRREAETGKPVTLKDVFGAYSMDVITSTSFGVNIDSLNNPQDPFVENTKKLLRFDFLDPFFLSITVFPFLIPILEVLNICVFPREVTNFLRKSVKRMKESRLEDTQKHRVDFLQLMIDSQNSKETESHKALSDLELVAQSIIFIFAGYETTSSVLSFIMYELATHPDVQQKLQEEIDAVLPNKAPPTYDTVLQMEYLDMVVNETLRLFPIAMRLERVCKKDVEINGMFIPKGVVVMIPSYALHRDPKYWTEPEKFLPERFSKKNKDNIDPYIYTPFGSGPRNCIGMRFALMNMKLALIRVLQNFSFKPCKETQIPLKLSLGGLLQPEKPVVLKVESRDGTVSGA
Text: Lonafarnib has not been studied in subjects with hepatic impairment.

[8] = in vivo
Description: (§2) This study was conducted as an open-label, drug-drug interaction (DDI) study, a food-effect study with LNF alone, and a food-effect study with LNF+ritonavir (RTV). This study assessed the effects of multiple-dose LNF (75 mg twice daily×5 days) on the PK of single dose omeprazole (1×40-mg capsule) relative to omeprazole alone in.
Other sensitive CYP2C19 substrates should be monitored during concomitant administration with LNF. […] Extent of exposure was 6,200 ng·h/mL and the T1/2 was 5.57 hours. Trough LNF concentrations increased from Day 7 to Day 9 (AM). By Day 10 trough levels stabilized, indicating steady-state LNF levels were achieved over 5 days of consecutive dosing. […] There were no deaths, SAEs, or other significant AEs. All AEs were Grade 1 or 2.

[9] = molecular target: P-gp (Homo sapiens, UniProt P08183); settings: in vivo
Chain of P-gp (P08183 whole entry): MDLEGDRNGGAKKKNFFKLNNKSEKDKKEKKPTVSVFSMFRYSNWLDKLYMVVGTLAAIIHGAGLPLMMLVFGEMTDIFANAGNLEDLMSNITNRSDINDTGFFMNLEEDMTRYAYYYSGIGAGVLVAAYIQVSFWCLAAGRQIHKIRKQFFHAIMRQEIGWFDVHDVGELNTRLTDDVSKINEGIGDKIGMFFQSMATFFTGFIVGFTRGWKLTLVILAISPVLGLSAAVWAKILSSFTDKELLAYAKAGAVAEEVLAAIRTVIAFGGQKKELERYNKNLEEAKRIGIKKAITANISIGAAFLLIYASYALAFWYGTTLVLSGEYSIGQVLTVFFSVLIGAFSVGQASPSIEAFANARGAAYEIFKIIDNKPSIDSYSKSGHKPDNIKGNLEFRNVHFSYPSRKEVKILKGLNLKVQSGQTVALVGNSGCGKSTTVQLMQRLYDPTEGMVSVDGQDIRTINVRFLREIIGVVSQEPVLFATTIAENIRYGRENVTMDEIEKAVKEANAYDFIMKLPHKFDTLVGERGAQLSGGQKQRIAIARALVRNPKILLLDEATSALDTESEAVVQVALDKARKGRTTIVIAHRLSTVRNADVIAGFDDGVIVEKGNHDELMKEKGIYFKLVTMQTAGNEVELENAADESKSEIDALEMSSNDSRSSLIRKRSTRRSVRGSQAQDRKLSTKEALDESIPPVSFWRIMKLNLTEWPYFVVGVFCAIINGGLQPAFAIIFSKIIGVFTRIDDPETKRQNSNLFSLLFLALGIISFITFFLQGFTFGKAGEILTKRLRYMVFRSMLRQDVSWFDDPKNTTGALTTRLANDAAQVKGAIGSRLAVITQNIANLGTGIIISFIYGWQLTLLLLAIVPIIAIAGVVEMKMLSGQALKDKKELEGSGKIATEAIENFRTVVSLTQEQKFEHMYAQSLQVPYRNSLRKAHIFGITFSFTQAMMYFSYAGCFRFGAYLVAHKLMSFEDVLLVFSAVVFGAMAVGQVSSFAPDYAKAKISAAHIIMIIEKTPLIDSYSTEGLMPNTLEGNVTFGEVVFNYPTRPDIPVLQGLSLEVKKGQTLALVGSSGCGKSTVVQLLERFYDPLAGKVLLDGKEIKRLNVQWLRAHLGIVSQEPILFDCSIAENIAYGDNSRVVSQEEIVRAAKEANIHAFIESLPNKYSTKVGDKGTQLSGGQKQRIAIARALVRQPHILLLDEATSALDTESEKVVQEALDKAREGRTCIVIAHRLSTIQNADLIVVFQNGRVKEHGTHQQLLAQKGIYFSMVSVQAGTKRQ

[10] = molecular target: T1, CYP2C19; test: Drug-drug interaction study: multiple-dose LNF on PK of single-dose omeprazole; assay type: in vivo; parameters: single-dose omeprazole, a sensitive CYP2C19 substrate; endogenous in cells; host or cells: study subjects in vivo; settings: for CYP2C19 inhibition in vivo (classification): lonafarnib 75 mg twice daily, omeprazole probe
Description: as §2

[11] = test system: CYP3A
[12] = Safety and tolerability in loperamide interaction study
[13] = test system: CYP3A; test: Drug-drug interaction study: multiple-dose lonafarnib on pharmacokinetics of single-dose midazolam; settings: human, in vivo, 100 mg
Text: (§3) An open-label, single-center, two-period, single-sequence, multi-drug-drug interaction study to evaluate the effects of multiple-dose lonafarnib on the pharmacokinetics of single-dose midazolam, a sensitive cytochrome p450-3a substrate.
(§4) Given the profound increase, sensitive substrates of CYP3A should be contraindicated with lonafarnib.

[14] = test system: cytochrome P450 CYP3A; test: as above
Text: as §3, §4

[15] = co-administered with lonafarnib vs midazolam alone
[16] = lonafarnib 75 mg twice daily co-administered
[17] = single-dose omeprazole with multiple-dose LNF
[18] = with multiple-dose LNF vs alone

## NC(=O)N1CCC(CC(=O)N2CCC([C@H]3c4ncc(Br)cc4CCc4cc(Cl)cc(Br)c43)CC2)CC1 [lonafarnib]
[1]; human, in vivo, steady state
  Cmax: 964 ng/mL
[1]; human, in vivo, steady state, read-out: lonafarnib T1/2 (converted)
  half-life: 4.22 h
[1]; steady state
  lonafarnib extent of exposure: 6,940 ng·h/mL
[1]; trough lonafarnib concentrations
  study day by which steady state was achieved: ≤ 8 days
[2]; single 75 mg dose, 2 fed states vs fasted
  LNF CL/F higher than fasted state: 33-35%
[2]; single 75 mg dose, fed states vs fasted
  decrease of LNF exposure (AUC0-t and AUC0-inf): 21-29%
[2]; single 75 mg dose, high-fat/high-calorie breakfast
  LNF Cmax decrease relative to fasted state: 55%
[2]; single 75 mg dose, low-fat/low-calorie breakfast
  LNF Cmax decrease relative to fasted state: 25%
[2]; single dose with high-fat/high-calorie or low-fat/low-calorie meal
  LNF Tmax relative to fasted state: delayed
[3]
  lonafarnib AUC increase: approximately 5 fold
  lonafarnib Cmax increase: approximately 3.6 fold
[4]; in vivo
  fraction renally cleared: < 1%
[4]; subjects with severe renal impairment
  lonafarnib exposure in renal impairment: exposures increase
[5]
  CYP3A inhibition (classification): potent CYP3A time-dependent and mechanism based inhibitor
[6]
  CYP2C19 inhibition (classification): moderate CYP2C19 inhibitor
[7]
  route of metabolism: extensively metabolised via the cytochrome P450 enzyme system in the liver; also recorded: metabolized predominantly via CYP3A4 enzyme
[8]
  adverse event incidence: More subjects experienced AEs taking LNF
[9]
  P-gp inhibition (classification): weak P-gp inhibitor
[10]
  CYP2C19 inhibition in vivo (classification): moderate CYP2C19 inhibitor
[10]; listed as LNF
  CYP2C19 inhibition in vivo (classification): direct/reversible inhibition of CYP2C19 in a moderate magnitude

## CN(C)C(=O)C(CCN1CCC(O)(c2ccc(Cl)cc2)CC1)(c1ccccc1)c1ccccc1 [loperamide]
[11]; coadministration of lonafarnib with loperamide
  increase of loperamide exposures (upper limit): up to 4.6 fold
[11]; single-dose loperamide 2 mg after lonafarnib 100 mg twice daily 5 days vs loperamide alone
  loperamide Cmax increase: ~3 fold
[11]; with multiple-dose lonafarnib
  loperamide Kel compared with loperamide alone: similar
[12]; healthy subjects, lonafarnib 100 mg twice daily and loperamide 2 mg
  tolerability: generally tolerated lonafarnib and loperamide well
[12]; loperamide coadministered with lonafarnib
  GI adverse events vs lonafarnib alone: fewer GI adverse events

## Cc1ncc2n1-c1ccc(Cl)cc1C(c1ccccc1F)=NC2 [midazolam]
[13]
  Tmax: 0.5 h
[14]; [15]
  midazolam AUC increase: approximately 7 fold
  midazolam Cmax increase: approximately 3 fold
[14]; single-dose midazolam with multiple-dose lonafarnib
  change in midazolam Cmax, AUC0-t and AUC0-inf: increased statistically significantly

## COc1ccc2[nH]c([S+]([O-])Cc3ncc(C)c(OC)c3C)nc2c1 (stereo not shown) [omeprazole]
[10]; coadministration with LNF
  change in omeprazole CL/F: decreased
  change in omeprazole Kel: decreased
  change in omeprazole T1/2: increased
[10]; [16]
  omeprazole AUC increase: approximately 1.6 fold
  omeprazole Cmax increase: approximately 1.3 fold
[10]; single-dose omeprazole 40 mg with multiple-dose LNF 75 mg twice daily 5 days
  omeprazole Cmax increase: 44%
[10]; [17]
  omeprazole AUC0-t and AUC0-inf increase: approximately 2 fold
  omeprazole Tmax with vs without LNF: approximately the same time
[10]; [18]
  omeprazole AUC0-inf geometric mean ratio (CI): 1.600 (1.32, 1.94)
  omeprazole AUC0-t geometric mean ratio (CI): 1.602 (1.34, 1.91)
  omeprazole Cmax geometric mean ratio (CI): 1.275 (1.01, 1.61)

Reference: patent US20240207243A1, “METHOD OF TREATING LAMINOPATHIES” (Eiger Biopharmaceuticals, Inc., priority 2019, published 2024)
